US8318697B2, “Prophylactic and therapeutic treatment of infectious and other diseases with mono- and disaccharide-based compounds” (Corixa Corporation, priority 2000, dated 2012)
Several values for one entry are separate records, joined by “and”; a condition that tells them apart may be missing. Equal values may be shown once. Read-outs that look alike come from different tables or passages of the source.

Legend:
[1] = tested on: Ogawa P. gingivalis LPS stimulated whole blood cells; experiment: Inhibition of LPS-induced cytokines in whole blood; assay type: cell-based, human; conditions: 10, 5, 2.5 ug/mL
Text: Table 4 provides the maximum levels of IL-4, IL-2 and IL-5 obtained, as well as ratios of TNF to IL-10, and ratios of IL-10 to TNF. Inhibition data for IL-8, reported as a percentage, are also provided on the right hand side of Table 4. For example, 90% inhibition would calculate to a 90% reduction of cytokine levels. MIP-1β results were similar. […]

human whole blood = assay type: cell-based; conditions: for cytokine stimulation in human whole blood cultures: overnight culture
[2] = tested on: L. monocytogenes 10403 serotype; experiment: Murine Listeria monocytogenes challenge model; assay type: in vivo, Mice; conditions: 1 μg intravenously in 0.2% TEOA, challenge two days later; FIGS. 14-17
Procedure: This example provides experiments evaluating the induction of non-specific resistance in the murine Listeria monocytogenes challenge model performed using various AGPs and MPL. Mice (5 per group) were treated intravenously with the 1 μg of an AGP or MPL solubilized in 0.2% TEOA. Two days later the mice were challenged intravenously with a ˜10^5 L. monocytogenes 10403 serotype (provided by M. L. Gray, Montana State University, Bozeman, Mont.). Two days after the challenge, the mice were sacrificed and the number of colony forming units (CFUs) in the spleens of individual mice were determined by plating 10-fold serial dilutions of splenic homogenates on tryptic soy agar plates. The degree of protection afforded by a given AGP or MPL was calculated by subtracting the average number of bacteria per spleen (log 10 value) in the group of mice treated with a given compound, from the average number of bacteria per spleen (log 10 value) in a control group that was “sham” treated with vehicle (0.2% TEOA) prior to challenge with L. monocytogenes.

Compound	% inhib. LPS IL-8 [1]	protection against L. monocytogenes challenge (reduction of log 10 bacteria per spleen vs vehicle) [2]	TNFα/IL10 cba (human whole blood; donor 2, ratio of TNF to IL-10)	cytokine stimulation in human whole blood cultures (human whole blood)	also measured
CCCCCCCCCCC[C@H](CC(=O)N[C@H]1[C@H](OC[C@H](NC(=O)C[C@@H](CCCCCCCCCCC)OC(=O)CCCCCCCC)C(=O)O)O[C@H](CO)[C@@H](OP(=O)(O)O)[C@@H]1OC(=O)C[C@@H](CCCCCCCCCCC)OC(=O)CCCCCCCC)OC(=O)CCCCCCCC.CCN(CC)CC [RC-537]	33%	–	–	–	IL-1β cba2 (human whole blood): 8353
CCCCCCCCCCC[C@H](CC(=O)N[C@H]1[C@H](OC[C@@H](NC(=O)C[C@@H](CCCCCCCCCCC)OC(=O)CCCCCCCCC)C(=O)O)O[C@H](CO)[C@@H](OP(=O)(O)O)[C@@H]1OC(=O)C[C@@H](CCCCCCCCCCC)OC(=O)CCCCCCCCC)OC(=O)CCCCCCCCC.CCN(CC)CC [RC-547]	–	protection that was equal to or greater than that provided by MPL	–	–	–
CCCCCCCCCCCC(=O)O[C@H](CCCCCCCCCCC)CC(=O)N[C@H]1[C@H](OC[C@H](NC(=O)C[C@@H](CCCCCCCCCCC)OC(=O)CCCCCCCCCCC)C(=O)O)O[C@H](CO)[C@@H](OP(=O)(O)O)[C@@H]1OC(=O)C[C@@H](CCCCCCCCCCC)OC(=O)CCCCCCCCCCC.CCN(CC)CC [RC-560]	−1%	–	–	–	IL-1β cba2 (human whole blood): 5833
CCCCCCCCCCC[C@H](CC(=O)N[C@H]1[C@H](OC[C@H](NC(=O)C[C@@H](CCCCCCCCCCC)OC(=O)CCCCCC)C(=O)O)O[C@H](CO)[C@@H](OP(=O)(O)O)[C@@H]1OC(=O)C[C@@H](CCCCCCCCCCC)OC(=O)CCCCCC)OC(=O)CCCCCC.CCN(CC)CC [RC-554]	100%	–	0.9	little if any cytokine stimulation	IL-1β cba2 (human whole blood; donor 1): 545; IL10/TNFα cba (human whole blood; donor 2, ratio of IL-10 to TNF): 1.1
CCCCCCCCCCC[C@H](CC(=O)N[C@H]1[C@H](OC[C@H](NC(=O)C[C@@H](CCCCCCCCCCC)OC(=O)CCCCCCCCCC)C(=O)O)O[C@H](CO)[C@@H](OP(=O)(O)O)[C@@H]1OC(=O)C[C@@H](CCCCCCCCCCC)OC(=O)CCCCCCCCCC)OC(=O)CCCCCCCCCC.CCN(CC)CC [RC-538]	−3%	–	–	–	IL10/TNFα cba (human whole blood): 0.5 and 0.3; IL-1β cba2 (human whole blood): 7767; TNFα/IL10 cba (human whole blood): 2.3 and 4
CCCCCCCCCCCCCC(=O)O[C@H](CCCCCCCCCCC)CC(=O)NCCCCO[C@@H]1O[C@H](CO)[C@@H](OP(=O)(O)O)[C@H](OC(=O)C[C@@H](CCCCCCCCCCC)OC(=O)CCCCCCCCCCCCC)[C@H]1NC(=O)C[C@@H](CCCCCCCCCCC)OC(=O)CCCCCCCCCCCCC.CCN(CC)CC [RC-557]	–	–	0.5	–	IL10/TNFα cba (human whole blood; donor 1, ratio of IL-10 to TNF): 0.6; TNFα/IL10 cba (human whole blood; donor 1, ratio of TNF to IL-10): 0.6
CCCCCCCCCCC[C@H](CC(=O)N[C@@H](CO)CO[C@@H]1O[C@H](CO)[C@@H](OP(=O)(O)O)[C@H](OC(=O)C[C@@H](CCCCCCCCCCC)OC(=O)CCCCCCCCC)[C@H]1NC(=O)C[C@@H](CCCCCCCCCCC)OC(=O)CCCCCCCCC)OC(=O)CCCCCCCCC.CCN(CC)CC [RC-545]	–	protection that was equal to or greater than that provided by MPL	–	–	–
CCCCCCCCCCC[C@H](CC(=O)N[C@H](CO)CCO[C@@H]1O[C@H](CO)[C@@H](OP(=O)(O)O)[C@H](OC(=O)C[C@@H](CCCCCCCCCCC)OC(=O)CCCCCCCCC)[C@H]1NC(=O)C[C@@H](CCCCCCCCCCC)OC(=O)CCCCCCCCC)OC(=O)CCCCCCCCC.CCN(CC)CC [RC-540]	–	protection that was equal to or greater than that provided by MPL	0.2	–	IL10/TNFα cba (human whole blood; donor 1, ratio of IL-10 to TNF): 5.5; TNFα/IL10 cba (human whole blood; donor 1, ratio of TNF to IL-10): 0.2; IL10/TNFα cba (human whole blood; donor 2, ratio of IL-10 to TNF): 5.2
CCCCCCCCCCC[C@H](CC(=O)N[C@@H](CCO)CO[C@@H]1O[C@H](CO)[C@@H](OP(=O)(O)O)[C@H](OC(=O)C[C@@H](CCCCCCCCCCC)OC(=O)CCCCCCCCC)[C@H]1NC(=O)C[C@@H](CCCCCCCCCCC)OC(=O)CCCCCCCCC)OC(=O)CCCCCCCCC.CCN(CC)CC [RC-541]	–	protection that was equal to or greater than that provided by MPL	–	–	–
CCCCCCCCCCCCCC(=O)O[C@H](CCCCCCCCCCC)CC(=O)NCCCO[C@@H]1O[C@H](CO)[C@@H](OP(=O)(O)O)[C@H](OC(=O)C[C@@H](CCCCCCCCCCC)OC(=O)CCCCCCCCCCCCC)[C@H]1NC(=O)C[C@@H](CCCCCCCCCCC)OC(=O)CCCCCCCCCCCCC.CCN(CC)CC [RC-525]	–	–	1.2	–	IL10/TNFα cba (human whole blood; donor 1, ratio of IL-10 to TNF): 3.7; TNFα/IL10 cba (human whole blood; donor 1, ratio of TNF to IL-10): 1.8; IL10/TNFα cba (human whole blood; donor 2, ratio of IL-10 to TNF): 0.7
CCCCCCCCCCC[C@H](CC(=O)N[C@H]1[C@H](OC[C@H](NC(=O)C[C@@H](CCCCCCCCCCC)OC(=O)CCCCCCC)C(=O)O)O[C@H](CO)[C@@H](OP(=O)(O)O)[C@@H]1OC(=O)C[C@@H](CCCCCCCCCCC)OC(=O)CCCCCCC)OC(=O)CCCCCCC.CCN(CC)CC [RC-555]	99%	–	0.8	little if any cytokine stimulation	IL-1β cba2 (human whole blood; donor 1): 519; IL10/TNFα cba (human whole blood; donor 2, ratio of IL-10 to TNF): 1.2
CCCCCCCCCCC[C@H](CC(=O)N[C@H]1[C@H](OC[C@H](NC(=O)C[C@@H](CCCCCCCCCCC)OC(=O)CCCCCCCCC)C(N)=O)O[C@H](CO)[C@@H](OP(=O)(O)O)[C@@H]1OC(=O)C[C@@H](CCCCCCCCCCC)OC(=O)CCCCCCCCC)OC(=O)CCCCCCCCC.CCN(CC)CC [RC-522]	–	protection that was equal to or greater than that provided by MPL	–	–	IL10/TNFα cba (human whole blood; donor 1, ratio of IL-10 to TNF): 2.7; TNFα/IL10 cba (human whole blood; donor 1, ratio of TNF to IL-10): 0.4
CCCCCCCCCCC[C@H](CC(=O)N[C@H]1[C@H](OC[C@H](NC(=O)C[C@@H](CCCCCCCCCCC)OC(=O)CCCCCCCCC)C(=O)O)O[C@H](CO)[C@@H](OP(=O)(O)O)[C@@H]1OC(=O)C[C@@H](CCCCCCCCCCC)OC(=O)CCCCC)OC(=O)CCCCC.CCN(CC)CC [RC-567]	100%	–	–	little if any cytokine stimulation	–
CCCCCCCCCCC[C@H](CC(=O)N[C@H]1[C@H](OC[C@H](NC(=O)C[C@@H](CCCCCCCCCCC)OC(=O)CCCCC)C(=O)O)O[C@H](CO)[C@@H](OP(=O)(O)O)[C@@H]1OC(=O)C[C@@H](CCCCCCCCCCC)OC(=O)CCCCC)OC(=O)CCCCCCCCC.CCN(CC)CC [RC-568]	96%	–	–	little if any cytokine stimulation	–
CCCCCCCCCCCCCC(=O)O[C@H](CCCCCCCCCCC)CC(=O)NCCCCCCO[C@@H]1O[C@H](CO)[C@@H](OP(=O)(O)O)[C@H](OC(=O)C[C@@H](CCCCCCCCCCC)OC(=O)CCCCCCCCCCCCC)[C@H]1NC(=O)C[C@@H](CCCCCCCCCCC)OC(=O)CCCCCCCCCCCCC.CCN(CC)CC [RC-571]	–	–	–	–	IL10/TNFα cba (human whole blood; donor 1, ratio of IL-10 to TNF): 8.6; TNFα/IL10 cba (human whole blood; donor 1, ratio of TNF to IL-10): 0.5
CCCCCCCCCCC[C@H](CC(=O)N[C@@H](CCC(=O)O)CO[C@@H]1O[C@H](CO)[C@@H](OP(=O)(O)O)[C@H](OC(=O)C[C@@H](CCCCCCCCCCC)OC(=O)CCCCCCCCC)[C@H]1NC(=O)C[C@@H](CCCCCCCCCCC)OC(=O)CCCCCCCCC)OC(=O)CCCCCCCCC.CCN(CC)CC [RC-573]	–	protection that was equal to or greater than that provided by MPL	–	–	–
CCCCCCCCCCC[C@H](CC(=O)N[C@H]1[C@H](OCCCN(CC(=O)O)C(=O)C[C@@H](CCCCCCCCCCC)OC(=O)CCCCCCCCC)O[C@H](CO)[C@@H](OP(=O)(O)O)[C@@H]1OC(=O)C[C@@H](CCCCCCCCCCC)OC(=O)CCCCCCCCC)OC(=O)CCCCCCCCC.CCN(CC)CC [RC-558]	–	protection that was equal to or greater than that provided by MPL	–	–	–
CCCCCCCCCCC[C@H](CC(=O)N[C@H]1[C@H](OC[C@H](NC(=O)C[C@@H](CCCCCCCCCCC)OC(=O)CCCCCCCCC)C(=O)O)O[C@H](CO)[C@@H](OP(=O)(O)O)[C@@H]1OC(=O)C[C@@H](CCCCCCCCCCC)OC(=O)CCCCC)OC(=O)CCCCCCCCC.CCN(CC)CC [RC-566]	93%	–	–	little if any cytokine stimulation	–
CCCCCCCCCCC[C@H](CC(=O)N[C@H]1[C@H](OC[C@H](NC(=O)C[C@@H](CCCCCCCCCCC)OC(=O)CCCCC)C(=O)O)O[C@H](CO)[C@@H](OP(=O)(O)O)[C@@H]1OC(=O)C[C@@H](CCCCCCCCCCC)OC(=O)CCCCCCCCC)OC(=O)CCCCC.CCN(CC)CC [RC-570]	100%	–	–	little if any cytokine stimulation	–
CCCCCCCCCCCCCC(=O)O[C@H](CCCCCCCCCCC)CC(=O)N[C@H]1[C@H](OC[C@H](NC(=O)C[C@@H](CCCCCCCCCCC)OC(=O)CCCCCCCCCCCCC)C(=O)O)O[C@H](CO)[C@@H](OP(=O)(O)O)[C@@H]1OC(=O)C[C@@H](CCCCCCCCCCC)OC(=O)CCCCCCCCCCCCC.CCN(CC)CC [RC-512]	−1%	–	3.9	–	IL-1β cba2 (human whole blood; donor 1): 3230; IL10/TNFα cba (human whole blood; donor 2, ratio of IL-10 to TNF): 0.4
